In series [1] the test system is WT murine PACs. Kind of series: Mitochondria stress test (Seahorse XF Extracellular Flux Analyzer) after succinate treatment. The class given is cell-based, mouse. The settings on record: 1 mM diethyl succinate, 48 h. On the procedure: FIG. 13A, FIG. 13B, FIG. 13C, FIG. 13D, FIG. 13E, FIG. 13F, FIG. 13G, FIG. 13H, FIG. 13I, FIG. 13J, FIG. 13K, FIG. 13L, FIG. 13M and FIG. 13N depict graphs showing mitochondria function and cellular homeostasis in Dnmt3b LOF chondrocytes. Primary articular chondrocytes were isolated from 2 mo Dnmt3b^f/f mice and infected with Ad5-Cre (Dnmt3b LOF) or Ad5-GFP (Ctrl) for 48 h. (FIG. 13A, FIG. 13B, FIG. 13C) Mitochondrial respiration was measured by the Seahorse XF Extracellular Flux Analyzer. Basal respiration and maximal respiration, as measured by the oxygen consumption rate (OCR) are shown. (FIG. 13D, FIG. 13E, FIG. 13F) TCA metabolite (succinate, fumarate) and NADH analysis by HPLC-MS. (FIG. 13G, FIG. 13H, FIG. 13I) Mitochondrial metabolism analysis was measured in 2 mo WT cells treated with either 1 mM diethyl succinate or vehicle for 48 h by the Seahorse XF Extracellular Flux Analyzer. (FIG. 13J) Chondrocyte gene expression in response to succinate treatment was analyzed by qPCR. (FIG. 13K, FIG. 13L, FIG. 13M) Mitochondrial respiration analysis in BMP-2-treated 2 mo WT chondrocytes in the presence or absence antimycin A+rotenone for 48 h. […]
Metabolite analysis and mitochondria stress test. […] Metabolites were analyzed by LC-MS/MS as previously described^60. […] At the end of the assays, protein concentrations were measured for normalization.

Series [2] deals with WT murine PACs. Put plainly: Chondrocyte gene expression in response to succinate treatment (qPCR). The class given is cell-based, mouse. The protocol: FIG. 13A, FIG. 13B, FIG. 13C, FIG. 13D, FIG. 13E, FIG. 13F, FIG. 13G, FIG. 13H, FIG. 13I, FIG. 13J, FIG. 13K, FIG. 13L, FIG. 13M and FIG. 13N depict graphs showing mitochondria function and cellular homeostasis in Dnmt3b LOF chondrocytes. Primary articular chondrocytes were isolated from 2 mo Dnmt3b^f/f mice and infected with Ad5-Cre (Dnmt3b LOF) or Ad5-GFP (Ctrl) for 48 h. (FIG. 13A, FIG. 13B, FIG. 13C) Mitochondrial respiration was measured by the Seahorse XF Extracellular Flux Analyzer. Basal respiration and maximal respiration, as measured by the oxygen consumption rate (OCR) are shown. (FIG. 13D, FIG. 13E, FIG. 13F) TCA metabolite (succinate, fumarate) and NADH analysis by HPLC-MS. (FIG. 13G, FIG. 13H, FIG. 13I) Mitochondrial metabolism analysis was measured in 2 mo WT cells treated with either 1 mM diethyl succinate or vehicle for 48 h by the Seahorse XF Extracellular Flux Analyzer. (FIG. 13J) Chondrocyte gene expression in response to succinate treatment was analyzed by qPCR. (FIG. 13K, FIG. 13L, FIG. 13M) Mitochondrial respiration analysis in BMP-2-treated 2 mo WT chondrocytes in the presence or absence antimycin A+rotenone for 48 h. (FIG. 13N) Analysis of chondrocyte gene expression in response to BMP-2 treatment+/−antimycin A+rotentone (0.1 μM).
Real-time PCR and western blot. RNA was isolated from ATDC-5 chondrocytes or primary articular chondrocytes using RNeasy Mini kit (Qiagen). cDNA synthesis and real-time RT-PCR was performed according to manufacturer's instructions. Western blot analyses were conducted on the protein of lysates from either ATDC-5 cells or primary (murine or human) articular chondrocytes. The following primary antibodies were used: pSmad1/5 (Cell Signaling technology Inc., 1:500), pSmad2 (Cell Signaling technology Inc., 1:1000), Smad1/5/8 (Cell Signaling technology Inc., 1:1000), Smad2 (Cell Signaling technology Inc., 1:1000), DNMT3A (LSBio, 1:1000), DNMT3B (LSBio, 1:1000), FLAG (Life technology, 1:1000) and β-actin (Sigma, 1:2000).

Series [3] relates to Primary articular chondrocytes from 2 mo WT mice. Kind of series: Succinate concentration assay. The class given is cell-based, mouse. Conditions: 1 mM diethyl succinate, 48 h. On the procedure: FIG. 15 depicts a graph showing cellular succinate levels in murine chondrocytes. Primary articular chondrocytes from 2 mo WT mice were treated with 1 mM diethyl succinate or vehicle for 48 h.
Succinate concentration assay. Primary articular chondrocytes isolated from 2 mo WT mice were treated with vehicle or diethylsuccinate (1 mM) for 48 h. Intracellular succinate concentration was measured using the succinate colorimetric assay kit following the manufacturer's instruction (Sigma, #MAK184-1KT).

In a further series the test system is Dnmt3b LOF chondrocytes. Kind of series: Vigabatrin treatment of Dnmt3b LOF primary articular chondrocytes, hypertrophic marker expression. The class given is cell-based, mouse. On the procedure: FIG. 23A, FIG. 23B and FIG. 23C depict ablation of Dnmt3b in articular chondrocytes (ACs). Primary Acs from Dnmt3b^f/f mice were infected with Ad5-Cre or Ad-GFP for 48 hr and cultured for a further 48 hr with or without vigabatrin (500μM).
To determine if this effect is dependent upon increased Abat expression, experiments were performed using vigabatrin to inhibit Abat activity in articular chondrocytes. […] Work will comprehensively investigate the role of Abat in controlling both metabolism and hypertrophic/catabolic responses in articular chondrocytes, and define its role in the development of OA.

For series [4] the following is noted: rodents, within the proposed dosage range; literature study (99); cited from earlier work.
The subject of series [5] is human primary articular chondrocytes. Kind of series: IL-1β treatment of human primary articular chondrocytes, gene and protein expression. The class given is cell-based. The text has this:
FIG. 1A, FIG. 1B, FIG. 1C, FIG. 1D, FIG. 1E, FIG. 1F, FIG. 1G, FIG. 1H, FIG. 1I, FIG. 1J, FIG. 1K, FIG. 1L and FIG. 1M depict images, graphs and an immunoblot showing Dnmt3b expression in murine and human knee joint cartilage. (FIG. 1A, FIG. 1B) Dnmt3a is not expressed in chondrocytes from 3 mo WT articular cartilage [(FIG. 1B) represents a magnified image of the boxed region in (FIG. 1A)]. (FIG. 1C) Dnmt3a expression in pancreas tissue (positive control). (FIG. 1D, FIG. 1E, FIG. 1F) Robust expression of Dnmt3b in chondrocytes of 3 mo WT articular cartilage and lower expression in underlying growth plate cartilage; [(FIG. 1E) represents a magnified image of the dashed boxed area of articular cartilage in (FIG. 1D); (FIG. 1F) represents a magnified image of the solid boxed area of growth plate cartilage in (FIG. 1D)]. Dnmt3b expression is also shown in: (FIG. 1G) 3 mo versus 27 mo WT murine knee articular cartilage; (FIG. 1H) 14 wk old murine articular cartilage following MLI surgery compared to cartilage from sham control knees; (FIG. 1I) 14 wk murine articular cartilage in mice fed a high fat diet (HFD) compared to controls (Ctrl) fed a normal diet. (FIG. 1J) Two representative images showing DNMT3B expression in human healthy articular cartilage or osteoarthritic cartilage tissue sections. (FIG. 1K) Reduced DNMT3B expression in human primary OA chondrocytes compared to healthy chondrocytes). […] All scale bars, 100 μm.
FIG. 3A and FIG. 3B depict graphs showing altered anabolic and catabolic gene expression in IL-1β-treated human primary chondrocytes. Reduced COL2A1 (FIG. 3A) and increased MMP13 (FIG. 3B) expression following IL-1β treatment (48 h) of human primary articular chondrocytes isolated from total knee replacement surgeries.
Full thickness sections of human articular cartilage were removed from the femoral condyles and tibial plateaus of specimens obtained following total knee replacement surgery, diced into 2 mm cubes and digested in sterile spinner flasks for 90 min at 37° C. in pronase digestion buffer [DMEM/F12 (Gibco); 5% FBS (Atlanta Biologicals), 2% penicillin/streptomycin (Gibco) and 0.4% pronase (Roche)]. Following washes in HBSS (Gibco), tissue was further digested in collagenase digestion buffer at 37° C. [DMEM/F12; 5% FBS; 2% penicillin/streptomycin; 0.035% collagenase P (Roche)] for 14-16 hr. Cells were collected, filtered through 70 μm cell strainers (VWR) and plated at a density of 100,000 cells/cm^2. After 24 hr, chondrocytes were treated with IL-1β (10 ng/ml; Gibco) for 48 hr. Total RNA was collected using the Total RNA prep kit (Norgen Biotek) and cDNA was synthesized using Superscript RT II (Life Technologies).
Real-time PCR and western blot. […]

Series [6] concerns murine WT primary articular chondrocytes. Put plainly: IL-1β induction of murine WT primary articular chondrocytes, Dnmt3b expression. In kind it is cell-based, mouse. The settings on record: IL-1β induction 48 h. The text has this: (§1) FIG. 4A, FIG. 4B, FIG. 4C, FIG. 4D, FIG. 4E and FIG. 4F depict sequences, graphs and a nucleic acid gel and immunoblot showing IL-1β regulation of Dnmt3b is mediated in part by NF-κB. (FIG. 4A) Sequence alignment and conservation of an NF-κB binding site (red) in the promoter region of the Dnmt3b gene of different species. Mouse—SEQ ID NO:1; Human—SEQ ID NO:2; Dog; SEQ ID NO:3; Horse—SEQ ID NO:4. […] Reduced luciferase activity is attenuated when ATDC-5 cells were transfected with a reporter plasmid containing a mutated NF-κB binding site ([…]; SEQ ID NO:5). […] (FIG. 4E, FIG. 4F) Dnmt3b mRNA and protein levels were reduced in murine WT primary articular chondrocytes (extracted from 3 mo murine knee joints) following IL-1β induction (48 h).
Real-time PCR and western blot. RNA was isolated from ATDC-5 chondrocytes or primary articular chondrocytes using RNeasy Mini kit (Qiagen). cDNA synthesis and real-time RT-PCR was performed according to manufacturer's instructions. Western blot analyses were conducted on the protein of lysates from either ATDC-5 cells or primary (murine or human) articular chondrocytes. […]

Another series has as its system Dnmt3b promoter. Put plainly: Dnmt3b promoter luciferase assay. In kind it is cell-based, mouse. The settings on record: ATDC-5 cells, IL-1β 1 ng/ml, 24 h, versus untreated control.
Source text: as §1
Dnmt3b promoter luciferase assay. ATDC-5 cells were transfected with a pGL4 luciferase plasmid containing cDNA encoding 1 kb of the murine Dnmt3b promoter using X-tremeGENE transfection reagents (Roche, #06366236001). A Dnmt3b promoter construct containing mutations in the predicted NFκB binding site was also transfected into an additional set of ATDC-5 cells. All transfected cells were then treated with IL-1β (1 ng/ml) for 24 h before performing the luciferase assay.

The test system of series [7] is primary articular chondrocytes. Put plainly: Cytokine-induced chondrocyte hypertrophy measured by ALP activity. Conditions: cytokine treatment. The class given is cell-based, mouse. On the procedure:
FIG. 24 depicts Dnmt3b gain-of-function attenuates IL-1β-induced chondrocyte hypertrophy. Primary ACs from 2 mo Dnmt3b GOF mice were treated with vehicle or doxycycline (10 μg/ml) for 24 hr. Medium without or with IL-1β (1 ng/ml) was added for 48 hr and ALP staining performed using NBT/BCIP substrate solution.
Hypertrophic characteristics, as measured by ALP activity, were induced in primary articular chondrocytes by treatment with either IL-1β or TNF-α. Dnmt3b GOF was induced by transfecting a plasmid expressing full-length Flag-tagged Dnmt3b cDNA. Western blot confirmed protein over-expression (data not shown). […] Similar results were shown in the TNF-α experiment (results not shown)

[8] abbreviates: Abat inhibition with vigabatrin.

These results are taken from patent US10123983B2, “DNA methyltransferases for the treatment and prevention of arthritis” (Washington University, priority 2015, dated 2018).

With `CCOC(=O)CCC(=O)OCC` [diethyl succinate], in the series on WT murine PACs [1], the “basal respiration (OCR)” value is “increased” and the “maximal respiration (OCR)” value was “increased”. Also, in the series on WT murine PACs [2], the Col2a1 expression entry is given as “decreased”, the Mmp13 expression entry is recorded as “increase” and the Runx2 expression result is recorded as “increase”. Besides, the cellular succinate levels result in series [3] is “Increased levels of cellular succinate”.
In the case of `C=CC(N)CCC(=O)O` (stereo not drawn) [vigabatrin], in the series with Dnmt3b LOF chondrocytes (setting [8]), the “Col10a1 expression in Dnmt3b LOF chondrocytes” value is “attenuates the increased expression”, the “Mmp13 expression in Dnmt3b LOF chondrocytes” value is on record as “attenuates the increased expression” and the “Runx2 expression in Dnmt3b LOF chondrocytes” value is recorded as “attenuates the increased expression”. Moreover, the “catabolic responses in chondrocytes” value in the series on Dnmt3b LOF chondrocytes (in vitro administration) was “can block catabolic responses”. The “hypertrophic gene expression induced by Dnmt3b LOF” value in the series on Dnmt3b LOF chondrocytes (vigabatrin 500μM, 48 hr, primary ACs from Dnmt3b f/f mice infected with Ad5-Cre) is “partially attenuated”. Also, the side effects entry in series [4] is given as “did not report any side effects”.
Turning to IL-1β: pro-inflammatory cytokine, in [5] (IL-1β 10 ng/ml, 48 hr), the “DNMT3B mRNA expression” value is recorded as “decreased” and the DNMT3B protein expression entry is “decreased”. In addition, in series [5] (IL-1β treatment 48 h), the COL2A1 expression result is given as “Reduced” and the MMP13 expression result was “increased”. In [6], the “Dnmt3b mRNA level” value is recorded as “reduced” and the Dnmt3b protein level entry is given as “reduced”. For the same compound, the “luciferase expression of Dnmt3b promoter reporter” value with Dnmt3b promoter was “Reduced luciferase expression”. Moreover, in series [7], the “hypertrophic characteristics, as measured by ALP activity” value was “induced”.
As for TNF-α, the “hypertrophic characteristics, as measured by ALP activity” value in series [7] was “induced”.
